PMC9658316, “Discovery of Mitochondrial Complex I Inhibitors as Anticancer and Radiosensitizer Drugs Based on Compensatory Stimulation of Lactate Release” (Cancers, 2022)

Experiments:
[1] = tested on: breast cancer 4T1 cancer cells; experiment: Compound-induced L-lactate release (Assay #1), 4T1; assay type: cell-based, mouse; details: 4T1 cells, 24 h
Experimental: L-lactate concentration was measured in a semi-automated manner using CMA Microdialysis AB enzymatic assay and a CMA 600 analyzer (Aurora Borealis, Schoonebeek, The Netherlands) as previously described. Briefly, cells (2 × 10^5 cells per well; 3 wells/condition) were seeded in 12-well plates with 2 mL of their routine culture medium. After 24 h, medium was replaced by 500 µL of DMEM containing 10 mmol/L D-glucose and supplemented with 2 mmol/L L-glutamine and 10% dialyzed FBS (Sigma-Aldrich), in the presence of the compounds or vehicle (DMSO). The initial concentration of L-lactate in the experimental medium was also assessed by including control wells containing only cell culture medium (no cells) on each plate. […] Differences in L-lactate concentrations between control and treated cells were calculated and normalized by the protein content in each well and expressed in µmol/h/mg protein. Oxygen-consumption rate (OCR) was measured using the Seahorse XF96 plate reader as previously reported. […] In some experiments, the effects of selected hits on basal OCR were evaluated in intact cells (including in the presence of MCT1/2 inhibitor AR-C155858 [29] or methylpyruvate). […]
Suppl. […] Culture medium was collected after 24h exposure to the indicated compounds and lactate content was determined in a semi-automated manner. […]

[2] = target: mitochondrial complex I (Mus musculus, UniProt P03888+Q91WD5+Q9DC70); experiment: Seahorse OCR in permeabilized CT26 cancer cells, mitochondrial complex I inhibition (Assay #2); assay type: cell-based; details: for pattern of OCR inhibition activity relative to aa: 1 and 10 µM; for IC50: pyruvate/malate, tested at 1 and 10 µM, read-out: OCR inhib. (IC50)
Experimental: (§1) L-lactate concentration was measured in a semi-automated manner using CMA Microdialysis AB enzymatic assay and a CMA 600 analyzer (Aurora Borealis, Schoonebeek, The Netherlands) as previously described. Briefly, cells (2 × 10^5 cells per well; 3 wells/condition) were seeded in 12-well plates with 2 mL of their routine culture medium. After 24 h, medium was replaced by 500 µL of DMEM containing 10 mmol/L D-glucose and supplemented with 2 mmol/L L-glutamine and 10% dialyzed FBS (Sigma-Aldrich), in the presence of the compounds or vehicle (DMSO). The initial concentration of L-lactate in the experimental medium was also assessed by including control wells containing only cell culture medium (no cells) on each plate. After incubation for 24 h, extracellular media were collected and deproteinized by centrifugation (15 min, 10,000 rpm, 4 °C) in 10 kDa cut-off filter tubes (VWR, Avantor, Leuven, Belgium). Differences in L-lactate concentrations between control and treated cells were calculated and normalized by the protein content in each well and expressed in µmol/h/mg protein. Oxygen-consumption rate (OCR) was measured using the Seahorse XF96 plate reader as previously reported. Briefly, cells (2 × 10^4 cells per well) were first permeabilized with 1 nM Seahorse XF Plasma Membrane Permeabilizer (#102504-100; Agilent, Machelen, Belgium) and respiration was stimulated by adding 10 mM pyruvate, 5 mM malate, and 2 mM ADP. After baseline OCR determination, compounds were added (to inhibit complex I) followed by 10 mM succinate to fuel complex II and rescue the electron transport chain. In some experiments, the effects of selected hits on basal OCR were evaluated in intact cells (including in the presence of MCT1/2 inhibitor AR-C155858 [29] or methylpyruvate). OCR data were normalized according to protein content in each well.
(A–D). Graphs depict changes in O2 consumption rate (OCR) measured with the Seahorse technology on permeabilized CT26 cancer cells upon successive addition of pyruvate/malate, the indicated inhibitor and succinate. […] (E,F).

[3] = tested on: colorectal CT26 cancer cells; experiment: Compound-induced L-lactate release (Assay #1), CT26; assay type: cell-based, mouse; details: 10 µM; for [LAC] increase: 24 h exposure, L-lactate secretion above basal release; for L-lactate release compared with reference compound aa: 24 h
Experimental: as §1
Figure 3 Compound-induced L-lactate release (Assay #1). Culture medium was collected after 24 h exposure to the indicated compounds (10 µM) and the amount of extracellular L-lactate release was determined in a semi-automated manner; dose-dependent effects of complex I inhibitor IACS are shown on the right (shaded bars). Bar graph depicts the extent of L-lactate secretion above the basal release as determined in the absence of any compound (n = 3, ** p < 0.01 for increased L-lactate release vs. reference compound aa).

[4] = tested on: intact CT26 cancer cells; experiment: Seahorse basal OCR and ECAR in intact (non-permeabilized) CT26 cancer cells; assay type: cell-based, mouse; details: non-permeabilized CT26 cells, 10 µM
Experimental: as §1
Since other lactate transporters could be involved, we also used methylpyruvate which can bypass the need for a mitochondrial carrier and mimic the result of lactate oxidation by a mitochondrial LDH or ensure the delivery of pyruvate into the mitochondria matrix. […] In the same experiments carried out on non-permeabilized cancer cells, the extent of basal OCR inhibition in response to 10 µM aa was similar to that observed with 100 nM IACS-010759 (−52 ± 5% and −45 ± 6%, respectively) and mirrored by an increase in extracellular acidification rate (ECAR) (+36 ± 11% and +29 ± 9%, respectively).

[5] = Cell integrity by Trypan blue exclusion; assay type: cell-based; details: cancer cells (cell line not specified); 24 h after exposure; read-out: viable cancer cells (Trypan blue exclusion)
Text: (§2) Mouse colorectal CT26 and breast 4T1 cancer cells as well as human cervix cancer SiHa and breast MDA-MD-231 cancer cells were acquired from ATCC where they are regularly authenticated by short tandem repeat profiling. They were stored according to the supplier’s instructions and used within 6 months after resuscitation of frozen aliquots. Cancer cells were maintained in DMEM (Life Technologies, ThermoFischer scientific, Merebelke, Belgium) supplemented with 10% heat-inactivated FBS. All cell lines were tested for mycoplasma contamination with the MycoAlert™ Mycoplasma Detection kit (#LT07-318; Lonza, Verviers, Belgium) before being used. Cell integrity was determined by the Trypan Blue exclusion method (using Bürker chambers) while cell growth was assessed by using the Presto Blue reagent (Life Technologies) according to manufacturer’s instructions.
Still, to support the anticancer potential of complex I inhibition, we also examined the cytotoxic effects of longer exposure of intact cancer cells to reference compound aa and hit compounds ag, aj and au. […] While the nature of cell death induced by aa derivatives is beyond the scope of this manuscript, alteration in mitochondria fitness and capacity to buffer calcium could be involved as previously reported.

[6] = tested on: human cervix Siha cancer cells; experiment: Growth inhibitory effects on human cancer cells (Presto Blue), SiHa vs MDA-MB-231; assay type: cell-based; details: 1 µM
Text: as §2
Suppl. Figure S3. Growth inhibitory effects of hit compounds on human cancer cells. MDA-M B-231 (A) and Siha (B) cancer cells were exposed to 100 nM IACS or 1 µM aa, ag, aj and au compounds; data represent the reduced extent (expressed as %) of cell viability (determined with Presto Blue) when compared with vehicle conditions (n=3).
(also on this page, place not known: 60Growth inhibitory effects (%) MDA-MB-231 aa au 60Growth inhibitory effects (%))

[7] = tested on: CT26 colon cancer cells; experiment: Growth inhibitory effects on cultured CT26 cells (Presto Blue); assay type: cell-based, mouse; details: CT26 monolayers, 1 µM, 72 h
Text: as §2
(§3) Figure 4 Mitochondrial complex I activity inhibition (Assay #2). (A–D). Graphs depict changes in O2 consumption rate (OCR) measured with the Seahorse technology on permeabilized CT26 cancer cells upon successive addition of pyruvate/malate, the indicated inhibitor and succinate. OXPHOS I inhibitor IACS was used as a control in the experiments testing reference compound aa (A), and compound aa (10µM) was used as reference for testing au, ah and at derivatives (B–D) (n = 6 per compound). (E,F). Growth inhibitory effects of cultured CT26 (E) and 4T1 […] cancer cells exposed to 100 nM IACS or 1 µM aa, ag, aj and au compounds for 72 h; data represent the reduced extent (expressed as %) of cell viability (determined with Presto Blue) when compared with vehicle conditions (n = 3).

[8] = tested on: breast 4T1 cancer cells; experiment: Growth inhibitory effects on cultured 4T1 cells (Presto Blue); assay type: cell-based, mouse; details: 4T1 monolayers, 1 µM, 72 h, compared with CT26
Text: as §2, §3

[9] = tested on: 3D tumor CT26 spheroids; experiment: Pimonidazole immunostaining of hypoxia in spheroids; assay type: cell-based, mouse; details: treated spheroids
Experimental: (§4) Spheroids were prepared by seeding 1500 cells/well in Ultra-Low Attachment 96-well plate (Corning, Merck, Hoeilaart, Belgium) in DMEM supplemented with 10% heat-inactivated FBS. Inhibitors were added on day 4 (mean diameter of spheroids: 300 µm) and renewed every 3 days. Spheroid growth was monitored using live-cell phase contrast microscope (Axio Observer, Zeiss, Zaventem, Belgium); spheroid area, density and morphology were measured using ImageJ software. Confocal fluorescence microscopy (LSM510, Zeiss, Zaventem, Belgium) was used for detecting pimonidazole immunostaining as previously reported. Spheroids from a same experiment were imaged with the same gain and exposure settings. In some experiments, OXPHOSi treatment was combined with irradiation using a ^137Cs γ-irradiator (IBL-637; CIS-BioInternational, Saclay, France) as previously described.
(§5) Figure 6 Radiosensitizing effects of selected complex I inhibitors. (A) Extent of surviving cancer cells post-exposure to radiotherapy and the indicated compounds (n = 3, * p < 0.05, ** p < 0.01 vs. vehicle condition).

[10] = tested on: 3D tumor CT26 spheroids; experiment: Radiosensitizing effects in 3D tumor spheroids (6 Gy irradiation); assay type: cell-based, mouse; details: 6 Gy irradiation at day 4, day 10 vs day 3
Experimental: as §4
(§6) Figure 5 Inhibition of 3D tumor spheroid growth (Assay #3). […] Drug exposure without (A) or with irradiation (B) was associated with a significant reduction in spheroid sizes vs. untreated spheroids (not shown).
We also took advantage of 3D tumor spheroids to evaluate whether they could radiosensitize tumors upon O2 sparing resulting from inhibition of O2 consumption. […]

[11] = tested on: 3D tumor CT26 spheroids; experiment: Inhibition of 3D tumor spheroid growth (Assay #3); assay type: cell-based, mouse; details: for 3D growth inhib. (%): 3D tumor CT26 spheroids; for spheroid growth inhibition compared with reference compound aa: CT26 spheroids, day 10
Experimental: as §4, §6

[12] = tested on: cancer cells from dissociated spheroids; experiment: Regrowth of cells from dissociated spheroids after irradiation and compound; assay type: cell-based, mouse; details: plated for 14 days, compared with aa
Text: Finally, to document the expected re-oxygenation, spheroids treated with compounds aa, aj and am were exposed to the hypoxia probe pimonidazole.
as §5

| SMILES | L-lactate release compared with aa compound [1] | pattern of OCR inhibition activity relative to aa [2] | IC50 [2] | [LAC] increase [3] | increase in extracellular acidification rate (ECAR) [4] | viability at 24 h [5] | antiproliferative effects in Siha compared with MDA-MB-231 cells [6] | concentration at which complex I-dependent OCR reduction was detectable [2] | reversal of OCR inhibition upon succinate addition ([2]; 10 mM succinate) | cytotoxic / growth inhibitory effects [7] | growth inhibitory activity [8] | reduction of hypoxia (pimonidazole) [9] | L-lactate release compared with reference compound aa [3] | change in spheroid size with irradiation [10] | 3D growth inhib. (%) [11] | spheroid growth inhibition compared with reference compound aa [11] | ability of cancer cells to re-grow after irradiation and compound [12] |
| --- | --- | --- | --- | --- | --- | --- | --- | --- | --- | --- | --- | --- | --- | --- | --- | --- | --- |
| NCc1cn(Cc2cc(Cl)c(C(=O)c3ccc(Cl)cc3)c(Cl)c2)nn1 [at] | less potent | inactive | > 10 µM | ~0 µmol/h/mg |  |  |  |  |  |  |  |  |  |  |  |  |  |
| NC(=O)c1nnn(Cc2cc(Cl)c(C(=O)c3ccc(Cl)cc3)c(Cl)c2)c1N [compound aa, carboxyamidotriazole, reference compound] |  |  |  | ~2 µmol/h/mg | +36 ± 11% | 90.9 ± 5.1% | Larger antiproliferative effects | 1 µM | full reversal of OCR inhibition | very limited effects | more significant growth inhibitory activity |  |  |  |  |  |  |
| NC(=O)c1nnn(Cc2cc(Cl)c(C(=O)C3CCCCC3)c(Cl)c2)c1N [compound aj] |  |  |  | ~4 µmol/h/mg |  |  | Larger antiproliferative effects |  |  | very limited effects | more significant growth inhibitory activity | reduced hypoxia to a larger extent than compound aa | more potent inducers of L-lactate release | net reduction in the spheroid size | >50% | significantly more active than reference compound aa | much lesser ability to re-grow |
| NC(=O)c1nnn(Cc2cc(Cl)c(Cc3ccc(Cl)cc3)c(Cl)c2)c1N [compound am] |  |  | ~10 µM | ~4 µmol/h/mg |  |  |  |  |  |  |  | reduced hypoxia to a larger extent than compound aa | more potent inducers of L-lactate release | net reduction in the spheroid size | >50% | significantly more active than reference compound aa | much lesser ability to re-grow |
| COC(=O)c1cn(Cc2cc(Cl)c(C(=O)c3ccc(Cl)cc3)c(Cl)c2)nn1 [compound au] | more | equiactive |  | ~4 µmol/h/mg |  |  | Larger antiproliferative effects |  |  | very limited effects | more significant growth inhibitory activity |  | more potent inducers of L-lactate release |  | <25% | significantly lesser growth inhibitory effects than compound aa |  |
